Marks after values point to notes of the source that are not given here.

Series [1] concerns rats of the Wistar strain. The series can be described thus: Analgesic effect (Randall-Selitto method). Format: in vivo. To be noted: oral; for Analgesic effect (Randall-Selitto): dose 25 mg/kg (*). Here is the method: These tests were conducted according to the Randall-Selitto method using rats of the Wistar strain [L.O. Randall, J.J. Selitto: Arch. int. Pharmacodyn. 111, 409 (1957)]. Except where otherwise noted, the dose of test compound was 50 mg/kg.

Series [2] has as its system male mice of the ddy strain. The series can be described thus: Acute toxicity. Format: in vivo. To be noted: fraction of animals; dose 300 mg/kg oral in 0.5% carboxymethyl cellulose, observed for 7 days. The procedure:
(§1) The test animals employed were male mice of the ddy strain (age: 5 weeks). […] The dose of test compound was 300 mg/kg.

Series [3] has as its system carrageenan-induced edema. Kind of series: Anti-inflammatory effect (carrageenan edema method). Format: in vivo, rats of the Wistar strain. To be noted: Rattus norvegicus; ID₅₀, oral, Wistar rats. For orientation: In the carrageenan paw model, swelling and tenderness develop within hours.
In series [4] the test system is carrageenan-induced edema. The description is as above. The format is in vivo, rats of the Wistar strain. As to conditions: Rattus norvegicus, percent inhibition of carrageenan-induced edema, oral. Here is the method:
The percent inhibition against carrageenan-induced edema in rats of the Wistar strain, using the conventional method of C.A. Winter, E.A. Risley, G.W. Nuss [J. Pharmacol., Exp. Therap., 141, 369 (1963)]. Except where otherwise noted, the dose of test compound was 50 mg/kg.

The target of another series is T1, 5-lipoxygenase (Cavia porcellus, UniProt A0A286X958).
T1 construct: The supernatant was isolated as an enzyme fraction; from tissue; host or cells: Casein-elicited peritoneal polymorphonuclear leukocytes of male Hartley guinea pigs; sonicated, 10,000 G supernatant
T1 sequence (A0A286X958 1-674): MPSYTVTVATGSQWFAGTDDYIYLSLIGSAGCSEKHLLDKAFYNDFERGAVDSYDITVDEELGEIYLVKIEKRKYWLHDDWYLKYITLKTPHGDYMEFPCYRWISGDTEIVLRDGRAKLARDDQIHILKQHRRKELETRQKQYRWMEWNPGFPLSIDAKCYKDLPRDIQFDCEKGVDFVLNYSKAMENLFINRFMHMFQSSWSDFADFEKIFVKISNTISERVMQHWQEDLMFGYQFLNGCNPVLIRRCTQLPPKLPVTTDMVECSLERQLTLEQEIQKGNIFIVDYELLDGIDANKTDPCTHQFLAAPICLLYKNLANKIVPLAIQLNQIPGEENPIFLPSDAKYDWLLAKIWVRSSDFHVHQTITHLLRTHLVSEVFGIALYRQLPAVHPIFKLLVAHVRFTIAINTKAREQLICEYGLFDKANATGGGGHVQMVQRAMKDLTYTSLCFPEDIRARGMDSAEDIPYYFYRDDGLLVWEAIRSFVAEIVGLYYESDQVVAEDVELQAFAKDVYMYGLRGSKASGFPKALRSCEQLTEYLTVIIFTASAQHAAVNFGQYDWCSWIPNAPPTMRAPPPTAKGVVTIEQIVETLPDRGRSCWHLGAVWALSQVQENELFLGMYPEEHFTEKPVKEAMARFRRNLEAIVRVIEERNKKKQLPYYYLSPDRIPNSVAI
Kind of series: 5-Lipoxygenase inhibitory activity (5-HITE production by polymorphonuclear leukocyte enzyme fraction). The format is biochemical, male guinea pigs of the Hartley strain. As to conditions: inhibition of production of 5-HITE from [14C]-arachidonic acid; 30°C, 30 minutes, pH 7.4; read-out: IC₅₀ (converted). The procedure: The preparation of polymorphonuclear leukocytes was carried out by the method of Sbarra et al [Sbarra A.J. and Karnovsky, M. L.; J. Biol. Chem., 234, 1355 - 1362 (1959)]. Specifically, a 2% w/v aqueous casein solution was administered intraperitoneally to male guinea pigs of the Hartley strain, each weighing about 400 - 500 g. The polymorphonuclear leukocytes were harvested from the peritoneal exudate 14 - 16 hours after the administration. The preparation of enzyme was carried out by the method of Yoshimoto et al [Yoshimoto, T., Furakawa, M., Yamamoto, S., Horie, T. and Watanabe-Kohno, S.; Biochem. Biophys. Commun., 116, 612 - 618 (1983)]. The harvested polymorphonuclear leukocytes were suspended in a 50 mM phosphate buffer solution (pH = 7.4) containing 10% ethylene glycol and 1mM EDTA at a density of 1 x 10⁸ cells/ml. The suspension was subjected to ultrasound twice, each time for 30 seconds at 20 KHz, and was then centrifuged for 10 minutes at 10,000 G. The supernatant was isolated as an enzyme fraction, which was stored at -80°C. The enzyme assay was carried out by a modification of Ochi's method [Ochi, K., Yoshimoto, T., Yamamoto., S., Taniguchi, K. and Miyamoto, T.; J. Biol. Chem., 258, 5754-5758 (1983)]. Specifically, 2 mM CaCℓ₂, 1 mM glutathione, 2 mM ATP (adenosine-5′-triphosphate), 16 µM [¹⁴C]-arachidonic acid (0.16 µCi, dissolved in 5 µl ethanol), the test compound (dissolved in 4 µl DMSO) and the enzyme solution (containing 200 µg of protein) were made up to a final volume of 200 µl in a 50 mM potassium phosphate buffer solution (pH = 7.4). The test compound and the enzyme were preincubated at 30°C for 5 minutes. After the addition of the arachidonic acid, the mixture was incubated at 30°C for 30 minutes. The reaction was stopped by the addition of 50µl of 0.2N citric acid. The reaction mixture was then extracted with ethyl acetate and the extract was concentrated under a stream of nitrogen. The concentrate was subjected to thin layer chromatography and eluted with a 85 : 15 : 0.1 by volume mixture of diethyl ether, petroleum ether and acetic acid. The 5-hydroxyicosatetraenoic acid (5-HITE) fraction of the plate was identified with a radioactive scanner and the radioactivity was measured. The IC₅₀ (µg/ml) was calculated against the inhibitory rate of the production of 5-HITE of a control group, to which a test compound was not administered.

A short description of a further series: Acute toxicity. Format: in vivo. As to conditions: mouse, in vivo; fraction of animals; dose 300 mg/kg oral in 0.5% carboxymethyl cellulose, observed for 7 days. Here is the method: as §1
The test system of series [5] is inflammation induced by anti-rat IgG rabbit serum. Kind of series: Anti-inflammatory effect (reversed passive alusas reaction, Evans blue extraction). Format: in vivo, rats of the Sprague-Dawley strain. As to conditions: 2.5 h, percent inhibition of inflammation relative to control group, oral. The procedure:
The test animals were rats of the Sprague-Dawley strain, which had first been fasted for 17 hours. The hair was trimmed from their dorsal portions by means of a hair clipper, and 0.1 ml/site of anti-rat IgG rabbit serum was injected intracutaneously at the trimmed part to induce inflammation. Except in the case of the control animals, to which no anti-inflammatory drug was administered, the test drug was administered orally immediately before inflammation was induced. Except where otherwise noted, the dose of test compound was 50 mg/kg. Two hours after induction of inflammation, a 1% by volume solution of Evans blue in physiological saline was injected intravenously into the tail of each rat in an amount of 1 ml per each animal. 30 minutes after this injection, the rats were sacrificed with carbon dioxide and their skins were peeled off to extract the chromogen of the blue spots. In more detail, the skins were cut into small pieces and extracted with 5 ml of an extraction solvent at room temperature for 2 days. The supernatant obtained by centrifugation was then measured spectrophotometrically at an absorption wavelength of 605 nm. The percent inhibition of inflammation of the group of rats to which the test drug was administered was determined relative to the control group.

Turning to `Cc1nn2cc[nH]c2c1-c1ccccc1` [Example 30, 6-methyl-7-phenyl-1H-imidazo[1,2-b]pyrazole], the ED50 (as a rule, the dose at which the effect has come halfway, by size or by number of responders) came out at 5.9 mg/kg in series [1] (Rattus norvegicus, ED₅₀, Wistar rats) and 25 mg/kg in series [3]. For the same compound, the “Analgesic effect (Randall-Selitto)” value in series [1] (fraction of animals) is given as 5/5*. In series [2], the “Toxicity (mouse)” value was 0/3. Also, in series [4], the inhibition in vivo (commonly how much of the control response was suppressed) at 25 mg/kg turned out to be 50%. Further, the IC50 at 5-lipoxygenase is 2.53 µM.
Turning to `CC(C)c1c(-c2ccccc2)nn2cc[nH]c12` [Example 11], at 5-lipoxygenase, the IC50 is 8.88 µM.
Consider `Cc1ccc(-c2cnn3cc[nH]c23)cc1` [Example 35, 7-(p-methylphenyl)-1H-imidazo[1,2-b]pyrazole], for which the “Analgesic effect (Randall-Selitto)” value in series [1] (fraction of animals) is listed as 5/5*. For the same compound, the mortality – broadly, the percentage killed – at 168 h in “Acute toxicity” was 30%. Also, the inhibition in vivo at 25 mg/kg in series [5] (dose 25 mg/kg (*)) turned out to be 69.9%; in series [4], 56.4%.
`CCc1c(-c2ccccc2)nn2cc[nH]c12` [Example 10] had a responders at 50 mg/kg in series [1] (Rattus norvegicus, fraction of animals, dose 50 mg/kg) of 100%. Besides, the “Toxicity (mouse)” value in series [2] is recorded as 0/3. In addition, the inhibition in vivo at 50 mg/kg in series [5] (dose 50 mg/kg) is 56.3%; in series [4] (dose 50 mg/kg), 51.3%. Moreover, on 5-lipoxygenase, the IC50 was 5.21 µM.
As to `CCCCCCCCCc1c(-c2ccccc2)nn2cc[nH]c12` [Example 41], at 5-lipoxygenase, the IC50 is 2.13 µM.

Source of the values: EP0353047B1, “Use of imidazopyrazole derivatives as analgesics and anti-inflammatory agents” (Sankyo Company Limited, priority 1988, dated 1990).
